Source: US20240360134A1, “PYRAZOLOPYRIMIDINES AND THEIR USES AS PDGFR INHIBITORS” (priority 2021, published 2024)
Read-outs that look alike come from different tables or passages of the source.

Legend:
VEGFR2, unphosphorylated = VEGFR2, unphosphorylated (Homo sapiens (Human), UniProt P35968); assay: VEGFR ADP GLO assay; assay type: biochemical; conditions: 5 nM VEGFR2, 1.2 mM ATP, 1 mg/mL Srctide, 180 min
Method: Assay buffer stock contains 50 mM HEPES pH7.5, 10 mM MgCl2, 0.01% Brij-35, and 1 mM EGTA.
Unphosphorylated VEGFR2. 52.6 μM in 50 mM Tris-HCl, pH 8.0, 50 mM NaCl, 5% Glycerol, 0.5 mM TCEP. Store at −80° C. in aliquots.
10 mg/mL srctide solution, prepared in Assay buffer (Assay buffer stock with 2 mM DTT, 0.1% Pluronic F-127, and 0.1 mg/mL ovalbumin). Sonicate 10 mg/ml Srctide solution for 10 minutes and then vacuum filter.
Assay buffer. Add DTT to 2 mM, Pluronic F-127 to 0.1% and ovalbumin to 0.1 mg/mL to Assay buffer stock.
2× kinase solution. Make a working solution of 10 nM unphosphorylated VEGFR2 in Assay buffer. Vacuum filter 2× kinase solution prior to running assay. Keep on ice until use.
2× substrate/ATP solution. Make a working solution of 2 mg/mL srctide and 2.4 mM ATP in Assay buffer. Keep on ice until use.
Step 1. Dispensing inhibitors/controls: Using Echo, dispense 10 nL/well compound serial dilutions in DMSO to columns 1-22 (in 384-well plates) or columns 1-44 (in 1536-well plates). Dilution series=11 pt, 3-fold dilutions. The top compound concentration in the source plate is 4 mM. The top compound concentration in the assay plate is 10 uM. Using Echo, dispense 10 nl/well DMSO to column 23 (in 384-well plates) or columns 45-47 (in 1536-well plates). These wells will serve as negative control wells Using Echo, dispense 10 nl/well 400 uM TAK-593 in DMSO to column 24 (in 384-well plates) or column 48 (in 1536-well plates). The final concentration of TAK-593 in the assay should be 1 uM. These wells will serve as positive control wells.
Step 2. Pre-incubation of inhibitors with kinase: Add 2 μL/well 2× kinase solution. Centrifuge at 1000 rpm for 1 min. Incubate at room temperature for 30 min.
Step 3. Kinase cascade reaction: Add 2 μL/well 2× substrate/ATP solution to initiate kinase reactions. Centrifuge at 1000 rpm for 1 min. Incubate at room temperature for 180 min.
Final concentrations of components in the assay:
Step 4. Quench: Add 2 uL/well ADP Glo Reagent+0.05% CHAPS. Centrifuge at 1000 rpm for 1 min; Incubate at room temperature for one hour.
Step 5. Detection: Add 2 uL/well Kinase Detection Reagent+0.05% CHAPS. Centrifuge at 1000 rpm for 1 min; Incubate at room temperature for 1 hour; Read Luminescence on a plate reader.
% Inhibition: % Inhibition=(NC−sample)/(NC−PC)*100 where NC is the mean of negative control (reactions without inhibitor), and PC is the mean of positive control (1 μM TAK-593).
IC50 values are determined from a 4-parameter fit, using the following equation: Y=Bottom+(Top−Bottom)/(1+10^(Log IC50-X)*Hill Slope), where X=log10 of the compound concentration; top can be defined by PC; bottom defined by NC.

PDGFRβ = PDGFRβ (Rattus norvegicus (Rat), UniProt Q05030); assay: PDGFRβ Cellular Assay (PDGFRb P-Y751 HTRF, PDGF-BB stimulated A10 cells); assay type: cell-based
Method: Cell Culture and Preparation: Cells are cultured according to ATCC procedure (5) with the addition of the antibiotic penicillin-streptomycin. If working from frozen, cells should be thawed according to ATCC procedure. Depending on the cell density of frozen vial, cells will need time to recover from thaw. An 80% confluent T75 flask should be enough for one 384 well plate.
Stock Solutions: Rat PDGFBB. A 100 ug/mL stock is prepared by reconstituting 50 ug in 500 μL of 4 mM HCl and 0.1% BSA. It can be stored for a month at 4° C., or aliquoted out and frozen in the −20/−80° C. to avoid multiple free-thaw cycles.
1× Cisbio cell lysis buffer. The cell lysis buffer is diluted 4-fold with molecular grade water. The blocking agent is then diluted 25-fold in the diluted lysis buffer.
Antibody solutions. Equal amounts d2 and cryptate antibody are diluted 20-fold in detection buffer.
Rat PDGFBB. A working stock of 100 ng/mL is created from the stock solution in 10% FBS culture media.
Step 1: Plating Cells: Media from the A10 cell flask is aspirated. The cells are rinsed with PBS and then trypsinized to disperse the cell layer. The cells are then pelleted are resuspended to 1.25e5 cells/mL. […] Plates are covered and placed in the incubator (37° C. 5% CO2) overnight to allow cells to adhere.
Step 2: Compound Dispense: Approximately 18 hours after plating, dispense 40 nL compound onto cells using Echo. […] The plate is returned to the incubator for 3 hours.
After 10 minutes the media is removed by flicking the plate.
Step 4: Cell lysis and antibody addition: 20 uL lysis buffer per well is added to the plate via Tempest. 5 uL antibody solution is added per well via the Tempest. The plate is placed on the shaker at 230 rpm for 1 hour at room temperature.
Step 5: Detection: The plate is read using the HTRF module on the BMG Pherastar. Data is analyzed using Genedata Screener.
IC50 values are determined from a 4-parameter fit, using the following equation: Y=Bottom+(Top−Bottom)/(1+10((Log IC50−X)*Hill slope)), where X=log10 of the compound concentration; top can be defined by PC; bottom defined by NC.

[1] = molecular target: Tb-labeled inactive PDGFRβ (Homo sapiens (Human), UniProt P09619); assay: biochemical; assay type: binding; conditions: read-out: PDGFR Lantha IC50
[2] = molecular target: His6-TEV-PDGFRβ (557-1016) (Homo sapiens (Human), UniProt P09619); assay: PDGFRβ HTRF Assay; assay type: biochemical; conditions: 800 μM ATP, 0.5 μM TK-substrate biotin peptide, 30 min pre-incubation, 3 hours reaction; read-out: PDGFR HTRF IC50
Method: Instrumentation: a. Compound liquid handling: LabCyte Echo; b. Reagent liquid handling: Thermo Scientific Multidrop Combi; c. BMG PHERAStar multilabel plate reader.
Protein Reagent: His6-TEV-PDGFRβ Protein Prep prepared at Accelagen.
Assay buffer stock solution, contains 50 mM Hepes, 10 mM MgCl2, 1 mM EGTA, and 0.01% Brij-35, 0.01% ovalbumin, 2 mM DTT at pH 7.5, in molecular biology grade water. Store at room temperature.
Assay buffer. Dilute 5× Kinase buffer 5-fold with molecular biology grade water and add DTT to 2 mM and ovalbumin to 0.1 mg/mL (or 0.01%).
2× protein solution. Make a working solution of […] PDGFRβ in assay buffer. Keep on ice until use to maintain enzyme stability.
2× substrate solution. Make a working solution of 1.6 mM ATP and 1 μM TK-substrate biotin peptide in assay buffer. 3× quench/detection solution.
Step 2. PDGFRβ E+I pre-incubation: Add 2 μL 2× protein solution to columns 1-24 using the Multidrop Combi. Centrifuge at 1000 rpm for 1 min. Incubate 30 min at RT
Step 2. Enzymatic reaction: Add 2 μL substrate solution to columns 1-24 to initiate the reaction using the Multidrop Combi; cover/seal the assay plate to reduce evaporation. Centrifuge at 1000 rpm for 1 min. Incubate at room temperature for 3 hours.
Final concentrations of components in PDGFRp cascade assay:
0.5 μM TK-substrate biotin peptide
Step 3. Quench/Detection: Add 2 μl 3× quench/detection solution to columns 1-24 using the Multidrop Combi; cover/seal the plate. Centrifuge 1 min 1000 rpm. Incubate at RT for 60 min.
HTRF ratio values calculated by the instrument (Ratio is acceptor counts/donor counts*10,000) is exported from the plate reader and used in data analysis. The exported data will be used to calculate 1) compound activity and 2) assay statistics. […] Assay statistics can include Robust Z′ and Signal to Background.
% Inhibition Calculation: Percent inhibition will be calculated for sample wells based on the equation: […]
IC50 Calculation: For IC50 determination, full 11-point dose response data will be processed using the following equation: […]

Chain of PDGFRβ (Q05030 whole entry, looked up): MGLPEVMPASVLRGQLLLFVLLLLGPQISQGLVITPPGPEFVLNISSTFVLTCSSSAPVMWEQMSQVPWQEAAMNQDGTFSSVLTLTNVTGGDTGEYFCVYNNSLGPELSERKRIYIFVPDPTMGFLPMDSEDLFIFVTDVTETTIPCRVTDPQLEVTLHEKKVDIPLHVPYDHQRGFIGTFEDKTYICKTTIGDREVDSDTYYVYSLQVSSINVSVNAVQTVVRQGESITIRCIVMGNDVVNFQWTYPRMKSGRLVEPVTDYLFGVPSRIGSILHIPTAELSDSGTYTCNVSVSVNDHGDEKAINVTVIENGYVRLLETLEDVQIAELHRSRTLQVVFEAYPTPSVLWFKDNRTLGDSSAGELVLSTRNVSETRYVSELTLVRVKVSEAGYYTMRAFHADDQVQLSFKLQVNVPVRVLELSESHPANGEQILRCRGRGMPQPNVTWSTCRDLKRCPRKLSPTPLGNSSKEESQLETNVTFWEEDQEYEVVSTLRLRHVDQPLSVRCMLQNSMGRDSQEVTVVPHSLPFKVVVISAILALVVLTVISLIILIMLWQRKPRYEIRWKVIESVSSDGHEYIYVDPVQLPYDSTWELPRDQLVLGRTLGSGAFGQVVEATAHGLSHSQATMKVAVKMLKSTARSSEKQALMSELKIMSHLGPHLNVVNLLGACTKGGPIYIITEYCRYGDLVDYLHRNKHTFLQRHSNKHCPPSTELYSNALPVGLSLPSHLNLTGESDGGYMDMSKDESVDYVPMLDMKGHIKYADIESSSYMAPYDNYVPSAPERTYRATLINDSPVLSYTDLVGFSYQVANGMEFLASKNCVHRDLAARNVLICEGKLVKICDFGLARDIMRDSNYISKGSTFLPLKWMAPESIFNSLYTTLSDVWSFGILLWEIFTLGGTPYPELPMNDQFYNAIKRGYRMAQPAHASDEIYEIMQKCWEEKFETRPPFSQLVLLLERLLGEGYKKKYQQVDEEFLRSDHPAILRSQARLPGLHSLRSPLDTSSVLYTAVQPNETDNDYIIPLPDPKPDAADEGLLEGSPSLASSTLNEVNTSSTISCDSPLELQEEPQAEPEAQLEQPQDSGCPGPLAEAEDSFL
Chain of VEGFR2, unphosphorylated (P35968 whole entry, looked up): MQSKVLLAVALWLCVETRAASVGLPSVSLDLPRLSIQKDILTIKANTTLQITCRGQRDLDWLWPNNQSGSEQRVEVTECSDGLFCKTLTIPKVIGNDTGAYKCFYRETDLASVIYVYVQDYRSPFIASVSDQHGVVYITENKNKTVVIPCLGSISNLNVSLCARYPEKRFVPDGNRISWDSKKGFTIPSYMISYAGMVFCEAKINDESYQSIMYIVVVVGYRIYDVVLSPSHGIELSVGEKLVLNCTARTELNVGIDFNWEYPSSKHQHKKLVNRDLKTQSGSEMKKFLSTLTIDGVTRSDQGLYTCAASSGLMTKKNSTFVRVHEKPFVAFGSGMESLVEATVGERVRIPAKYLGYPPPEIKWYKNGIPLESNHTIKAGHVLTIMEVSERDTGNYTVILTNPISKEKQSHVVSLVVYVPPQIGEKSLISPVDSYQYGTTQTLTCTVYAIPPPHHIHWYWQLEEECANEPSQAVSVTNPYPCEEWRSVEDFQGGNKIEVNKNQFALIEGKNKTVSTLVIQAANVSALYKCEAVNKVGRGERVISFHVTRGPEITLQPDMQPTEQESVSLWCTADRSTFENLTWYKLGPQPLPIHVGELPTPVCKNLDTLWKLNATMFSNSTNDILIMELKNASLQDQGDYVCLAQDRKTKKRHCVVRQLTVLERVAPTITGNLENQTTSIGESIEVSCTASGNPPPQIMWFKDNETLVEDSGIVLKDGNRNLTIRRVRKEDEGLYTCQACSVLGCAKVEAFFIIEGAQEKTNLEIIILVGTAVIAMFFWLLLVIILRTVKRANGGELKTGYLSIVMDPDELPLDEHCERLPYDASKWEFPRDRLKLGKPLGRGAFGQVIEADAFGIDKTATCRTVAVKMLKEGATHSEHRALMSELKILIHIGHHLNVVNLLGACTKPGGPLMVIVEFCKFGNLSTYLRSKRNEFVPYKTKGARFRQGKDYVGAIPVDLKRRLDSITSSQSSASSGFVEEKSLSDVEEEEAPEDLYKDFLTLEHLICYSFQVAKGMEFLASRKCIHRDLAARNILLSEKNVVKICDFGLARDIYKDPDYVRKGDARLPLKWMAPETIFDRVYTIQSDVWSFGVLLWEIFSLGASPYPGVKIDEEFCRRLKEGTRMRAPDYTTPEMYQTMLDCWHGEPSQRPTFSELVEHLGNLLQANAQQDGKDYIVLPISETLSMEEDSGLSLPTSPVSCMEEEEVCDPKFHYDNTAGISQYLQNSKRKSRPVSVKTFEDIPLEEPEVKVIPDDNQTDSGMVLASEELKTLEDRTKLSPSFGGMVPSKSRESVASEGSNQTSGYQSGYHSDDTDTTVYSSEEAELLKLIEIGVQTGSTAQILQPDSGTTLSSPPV
Chain of His6-TEV-PDGFRβ (557-1016) (P09619 whole entry, looked up): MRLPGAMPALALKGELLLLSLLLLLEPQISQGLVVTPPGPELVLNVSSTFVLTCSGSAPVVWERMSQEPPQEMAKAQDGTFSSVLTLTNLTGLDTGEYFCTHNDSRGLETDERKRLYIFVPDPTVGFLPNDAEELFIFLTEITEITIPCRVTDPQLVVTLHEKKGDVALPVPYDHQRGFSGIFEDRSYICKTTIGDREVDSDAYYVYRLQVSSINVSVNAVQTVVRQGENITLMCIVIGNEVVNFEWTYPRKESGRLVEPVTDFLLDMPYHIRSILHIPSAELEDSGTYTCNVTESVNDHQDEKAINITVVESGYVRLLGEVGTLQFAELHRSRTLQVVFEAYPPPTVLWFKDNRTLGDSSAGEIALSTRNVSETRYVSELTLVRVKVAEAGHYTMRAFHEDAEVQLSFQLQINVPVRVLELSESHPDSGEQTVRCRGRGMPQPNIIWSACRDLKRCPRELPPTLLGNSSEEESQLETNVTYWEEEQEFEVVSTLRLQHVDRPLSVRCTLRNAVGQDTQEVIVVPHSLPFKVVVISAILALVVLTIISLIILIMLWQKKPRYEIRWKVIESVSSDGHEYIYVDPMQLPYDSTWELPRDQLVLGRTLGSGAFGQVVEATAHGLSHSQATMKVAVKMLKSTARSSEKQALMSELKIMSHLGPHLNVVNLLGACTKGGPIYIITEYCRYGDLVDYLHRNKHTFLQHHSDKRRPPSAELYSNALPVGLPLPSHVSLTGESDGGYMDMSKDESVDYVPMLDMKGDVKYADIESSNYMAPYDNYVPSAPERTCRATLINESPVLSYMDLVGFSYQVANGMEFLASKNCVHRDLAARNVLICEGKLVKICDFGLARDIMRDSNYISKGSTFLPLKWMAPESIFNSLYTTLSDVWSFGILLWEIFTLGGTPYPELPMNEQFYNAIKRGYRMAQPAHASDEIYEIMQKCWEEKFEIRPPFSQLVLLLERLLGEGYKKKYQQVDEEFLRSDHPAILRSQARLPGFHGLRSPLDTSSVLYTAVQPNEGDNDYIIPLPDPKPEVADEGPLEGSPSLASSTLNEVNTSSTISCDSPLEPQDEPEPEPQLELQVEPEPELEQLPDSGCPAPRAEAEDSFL
Chain of Tb-labeled inactive PDGFRβ (P09619 whole entry, looked up): as above

In the case of `Cc1ncc(C(=O)NCCN(C)C2CCOCC2)cc1Nc1nn(C)c2nc(Nc3cnn(C)c3)ncc12` [Example 21, 6-methyl-N-(2-(methyl(tetrahydro-2H-pyran-4-yl)amino)ethyl)-5-((1-methyl-6-((1-methyl-1H-pyrazol-4-yl)amino)-1H-pyrazolo[3,4-d]pyrimidin-3-yl)amino)nicotinamide], the IC50 (VEGFR2, unphosphorylated) is reported as greater than 7500 nM and the IC50 (PDGFRβ) is reported as 66.3 nM.

Compound `COC1CCN(CCNC(=O)c2cnc(C)c(Nc3nn(C)c4nc(Nc5cnn(C)c5)ncc34)c2)CC1` [Example 22, N-(2-(4-methoxypiperidin-1-yl)ethyl)-6-methyl-5-((1-methyl-6-((1-methyl-1H-pyrazol-4-yl)amino)-1H-pyrazolo[3,4-d]pyrimidin-3-yl)amino)nicotinamide] has an IC50 (VEGFR2, unphosphorylated) greater than 7500 nM and an IC50 (PDGFRβ) of 88.7 nM.

`Cc1ncc(C(=O)NCCN2CCS(=O)(=O)CC2)cc1Nc1nn(C)c2nc(Nc3cnn(C)c3)ncc12` [Example 23, N-(2-(1,1-dioxidothiomorpholino)ethyl)-6-methyl-5-((1-methyl-6-((1-methyl-1H-pyrazol-4-yl)amino)-1H-pyrazolo[3,4-d]pyrimidin-3-yl)amino)nicotinamide] was tested, and the IC50 (VEGFR2, unphosphorylated) was greater than 7500 nM and the IC50 (PDGFRβ) was 294 nM.

With `Cc1ncc(C(=O)NCCN2CCOCC23CC3)cc1Nc1nn(C)c2nc(Nc3cnn(C)c3)ncc12` [Example 24, N-(2-(7-oxa-4-azaspiro[2.5]octan-4-yl)ethyl)-6-methyl-5-((1-methyl-6-((1-methyl-1H-pyrazol-4-yl)amino)-1H-pyrazolo[3,4-d]pyrimidin-3-yl)amino)nicotinamide] the IC50 (VEGFR2, unphosphorylated) was greater than 7500 nM and the IC50 (PDGFRβ) was 22.1 nM.

`COCC1CCCN1CCNC(=O)c1cnc(C)c(Nc2nn(C)c3nc(Nc4cnn(C)c4)ncc23)c1` (stereo not shown) [Example 25, N-(2-(2-(methoxymethyl)pyrrolidin-1-yl)ethyl)-6-methyl-5-((1-methyl-6-((1-methyl-1H-pyrazol-4-yl)amino)-1H-pyrazolo[3,4-d]pyrimidin-3-yl)amino)nicotinamide] gave an IC50 (VEGFR2, unphosphorylated) greater than 7500 nM and an IC50 (PDGFRβ) of 12.9 nM.

With `Cc1ncc(C(=O)NCCN2CC3COCC3C2)cc1Nc1nn(C)c2nc(Nc3cnn(C)c3)ncc12` (stereo not shown) [Example 26, 6-methyl-5-((1-methyl-6-((1-methyl-1H-pyrazol-4-yl)amino)-1H-pyrazolo[3,4-d]pyrimidin-3-yl)amino)-N-(2-(tetrahydro-1H-furo[3,4-c]pyrrol-5(3H)-yl)ethyl)nicotinamide] the IC50 (VEGFR2, unphosphorylated) was greater than 7500 nM and the IC50 (PDGFRβ) was 92.5 nM.

`Cc1ncc(C(=O)NCCN2CCCC2(C)C)cc1Nc1nn(C)c2nc(NC3CCS(=O)(=O)CC3)ncc12` [Example 45, N-(2-(2,2-dimethylpyrrolidin-1-yl)ethyl)-5-((6-((1,1-dioxido-tetrahydro-2H-thiopyran-4-yl)amino)-1-methyl-1H-pyrazolo[3,4-d]pyrimidin-3-yl)amino)-6-methylnicotinamide] was tested, and the IC50 (VEGFR2, unphosphorylated) was greater than 10000 nM, the IC50 [1] was 1640 nM and the IC50 [2] was 51 nM.

`Cn1nc(Nc2cc(C(=O)NCCN3CCCC3(C)C)ccc2F)c2cnc(Nc3ccnnc3)nc21` [Example 50, N-(2-(2,2-dimethylpyrrolidin-1-yl)ethyl)-4-fluoro-3-((1-methyl-6-(pyridazin-4-ylamino)-1H-pyrazolo[3,4-d]pyrimidin-3-yl)amino)benzamide] gave an IC50 (VEGFR2, unphosphorylated) greater than 7500 nM and an IC50 (PDGFRβ) of 45.8 nM.

For `Cc1ncc(C(=O)NCCN2CCCC23CC3)cc1Nc1nn(C)c2nc(Nc3cnn(C)c3)ncc12` [Example 53, N-(2-(4-azaspiro[2.4]heptan-4-yl)ethyl)-6-methyl-5-((1-methyl-6-((1-methyl-1H-pyrazol-4-yl)amino)-1H-pyrazolo[3,4-d]pyrimidin-3-yl)amino)nicotinamide], the IC50 (VEGFR2, unphosphorylated) was 4270 nM and the IC50 (PDGFRβ) was 6.2 nM.

Compound `Cc1ncc(C(=O)NCCN2CCOC3(CC3)C2)cc1Nc1nn(C)c2nc(Nc3cnn(C)c3)ncc12` [Example 54, N-(2-(4-oxa-7-azaspiro[2.5]octan-7-yl)ethyl)-6-methyl-5-((1-methyl-6-((1-methyl-1H-pyrazol-4-yl)amino)-1H-pyrazolo[3,4-d]pyrimidin-3-yl)amino)nicotinamide] has an IC50 (VEGFR2, unphosphorylated) of 4730 nM and an IC50 (PDGFRβ) of 36.3 nM.

Work on `Cc1ncc(C(=O)NCCN2CC[C@@H](C)C2)cc1Nc1nn(C)c2nc(Nc3cncnc3)ncc12` [Example 59, (R)-6-methyl-5-((1-methyl-6-(pyrimidin-5-ylamino)-1H pyrazolo-[3,4-d]pyrimidin-3-yl)amino)-N-(2-(3-methylpyrrolidin-1-yl)ethyl)nicotinamide] yielded an IC50 (VEGFR2, unphosphorylated) greater than 7500 nM and an IC50 (PDGFRβ; A10 cells, 3 hours compound, 15 ng/mL PDGFbb for 10 minutes, read-out: PDGFR Cellular IC50) of 190 nM.

With `Cc1ncc(C(=O)NCCN2CCC3(CCC3)C2)cc1Nc1nn(C)c2nc(Nc3cnn(C)c3)ncc12` [Example 83, N-(2-(6-azaspiro[3.4]octan-6-yl)ethyl)-6-methyl-5-((1-methyl-6-((1-methyl-1H-pyrazol-4-yl)amino)-1H-pyrazolo[3,4-d]pyrimidin-3-yl)amino)nicotinamide] the IC50 (VEGFR2, unphosphorylated) was greater than 7500 nM and the IC50 (PDGFRβ) was 26.2 nM.
